Results published in paper PMC9718795, “Caffeic acid N-[3,5-bis(trifluoromethyl)phenyl] amide as a non-steroidal inhibitor for steroid 5α-reductase type 1 using a human keratinocyte cell-based assay and molecular dynamics” (Scientific Reports, 2022).
Read-outs that look alike come from different tables or passages of the source.

Tests used:
[1] = biological target: T1, steroid 5α-reductase type 1 (SRD5A1) (Homo sapiens, UniProt P18405); test: HaCaT cell-based SRD5A1 inhibitory assay with direct DHT detection by HPTLC; conditions: HaCaT, read-out: % Inhibition of DHT production ± SD; for inhibition at 20 µM: compound 20 µM, 24 h
T1 construct: HaCaTs-produced SRD5A1 smoothly converted testosterone to DHT; endogenous in cells; host or cells: HaCaT human keratinocytes
T1 sequence (P18405 1-259): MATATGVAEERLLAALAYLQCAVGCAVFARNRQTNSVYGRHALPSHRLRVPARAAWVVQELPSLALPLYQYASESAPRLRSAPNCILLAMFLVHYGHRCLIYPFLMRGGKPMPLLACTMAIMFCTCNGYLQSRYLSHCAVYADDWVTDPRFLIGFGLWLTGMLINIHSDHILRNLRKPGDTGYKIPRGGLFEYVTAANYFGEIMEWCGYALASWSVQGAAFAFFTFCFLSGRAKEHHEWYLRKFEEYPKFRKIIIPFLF

[2] = Cell viability (MTT) in the whole-cell kinetic study; type: cell-based; conditions: human, HaCaT cells, testosterone 0−50 µM, read-out: Cell viabilities
Method: (§1) The in vitro whole HaCaT cell-based assay for the kinetic inhibition against SRD5A1 included culturing the cells for 48 h, treating the cells with testosterone and compound 4 for 12 h and evaluating the % intensity of DHT and cell viability using HPTLC analysis and MTT assay, respectively. The HaCaT cells were seeded and incubated as same as the method shown in 3.8. For the evaluation of dose-dependent activity of testosterone, the different concentration of testosterone (0 − 50 μM) and DMEM with 0.1% DMSO were added. […] DMEM with 0.1% DMSO was used as negative control. Then, the cells were incubated for 12 h. The collection of cell culture medium, extraction process, sample preparation and HPTLC detection were prepared by the method mentioned above (3.8). The obtaining chromatogram was visualized by CAMAG HPTLC Software vision CATS and analyzed by Image J software. The percentage of DHT intensity was calculated based on the intensity of DHT normalized by the standard of DHT at 100 μM. At the same time, the cell viability of the treated cells was assessed by the MTT assay. Each experiment was repeated in triplicate.

[3] = Cell viability (MTT) run in parallel with the HaCaT-based SRD5A1 inhibitory assay; design: species or system human; conditions: human
[4] = biological target: T2, HaCaTs-produced SRD5A1 (Homo sapiens, UniProt P18405); test: Whole-cell-based kinetic study of HaCaT-produced SRD5A1 with HPTLC; conditions: no inhibitor, 12 h
T2 construct: HaCaTs-produced SRD5A1 smoothly converted testosterone to DHT; endogenous in cells; host or cells: HaCaT human keratinocytes
T2 sequence (P18405 1-259): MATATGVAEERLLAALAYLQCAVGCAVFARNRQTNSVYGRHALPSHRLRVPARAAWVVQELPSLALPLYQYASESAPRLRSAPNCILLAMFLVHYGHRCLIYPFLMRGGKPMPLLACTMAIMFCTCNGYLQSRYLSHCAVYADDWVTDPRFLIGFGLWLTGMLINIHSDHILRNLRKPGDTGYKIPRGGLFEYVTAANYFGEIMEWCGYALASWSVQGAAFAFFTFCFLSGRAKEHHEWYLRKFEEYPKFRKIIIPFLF
Method: as §1

[5] = system: human keratinocyte (HaCaT) cells; test: In vitro cytotoxic MTT assay against HaCaT cells; type: cell-based; conditions: 0.5–50 µM, 24 h
Method: (§2) The cytotoxicity of caffeic acid and its amide derivatives were evaluated with two cell lines, human keratinocyte (HaCaT) and DP cells, using the common cell viability assay with MTT. HaCaT and DP cells were seeded at 1 × 10^4 cell/well in 96-well plates in a complete DMEM medium, incubated overnight, and treated with test compounds at 0–50 µM for 24 h. The stock solutions of all the test compounds were prepared in DMSO. Each compound was serially diluted in DMEM to achieve concentrations at 0.5–50 µM; DMEM was used as the negative control. After 24 h of treatment, the culture medium was removed, and cell viability was determined by adding 100 µL of 0.5 mg/mL MTT at 37 °C in darkness for 3 h. After removing the MTT solution, 100 µL of DMSO was added to each well to dissolve the purple formazan crystals. The absorbance was measured at 570 nm using a microplate reader, and the IC50 value was calculated. Each experiment was performed in triplicates.

[6] = system: dermal papilla (DP) cells; test: In vitro cytotoxic MTT assay against DP cells; type: cell-based, human; conditions: 0.5–50 µM, 24 h
Method: as §2

[7] = system: HaCaT cells; test: Cell viability (MTT) run in parallel with the HaCaT-based SRD5A1 inhibitory assay; design: species or system human; conditions: human, 24 h, 20 µM
[8] = biological target: T1, steroid 5α-reductase type 1 (SRD5A1); design: method as in PMID 28250347; conditions: same HaCaT cell-based assay; read-out: IC50 of SRD5A1 inhibition; cited from earlier work
[9] = substrate: C[C@]12CC[C@H]3[C@@H](CCC4=CC(=O)CC[C@@]43C)[C@@H]1CC[C@@H]2O; test: Whole-cell-based kinetic study of HaCaT-produced SRD5A1 with HPTLC; design: species or system human; conditions: other: no inhibitor, Michaelis–Menten, 12 h
Method: as §1

[10] = HaCaT cells, compound 20 µM, HaCaT, 24 h, read-out: % Cell viability ± SD

Molecule: C[C@]12CC[C@H]3[C@@H](CCC4=CC(=O)CC[C@@]43C)[C@@H]1CC[C@@H]2O [Testosterone, reference compound]
- inhibition at 10 µM [1]: 0%
- viability at 12 h [2]: ~80%
- viability at 24 h, 10 µM ([3]; 10 µM testosterone, substrate only, read-out: % Cell viability ± SD): 100%
- Vmax in the absence of inhibitors [4]: 130.9
- % DHT intensity ± S.D. ([4]; testosterone 1 µM): 15.35 ± 9.10%
- % DHT intensity ± S.D. ([4]; testosterone 5 µM): 43.55 ± 10.80%
- % DHT intensity ± S.D. ([4]; testosterone 10 µM): 65.05 ± 13.06%
- % DHT intensity ± S.D. ([4]; testosterone 25 µM): 103.52 ± 20.66%
- % DHT intensity ± S.D. ([4]; testosterone 50 µM): 105.75 ± 11.30%

Molecule: CC(C)(C)NC(=O)C=Cc1ccc(O)c(O)c1 [Compound 3, 3-(3,4-dihydroxyphenyl)-N-(1,1-dimethylethyl)-2-propenamide]
- inhibition at 20 µM [1]: 2 ± 2.12%
- Toxicity against HaCaT cells [5]: no toxicity
- Toxicity against DP cells [6]: no toxicity
- viability at 24 h, 20 µM [3, 10]: 102 ± 2.09%

Molecule: O=C(O)C=Cc1ccc(O)c(O)c1 [Compound 1, 3,4-dihydroxycinnamic acid]
- Toxicity against HaCaT cells [5]: no toxicity
- Toxicity against DP cells [6]: no toxicity
- viability at 24 h, 20 µM ([3]; % Cell viability ± SD): 86%
- % Cell viability ± SD [7]: 86.38 ± 5.70%

Molecule: C[C@]12C=CC(=O)N[C@@H]1CC[C@@H]1[C@@H]2CC[C@]2(C)[C@@H](C(=O)Nc3cc(C(F)(F)F)ccc3C(F)(F)F)CC[C@@H]12 [Dutasteride, reference compound]
- inhibition at 2.5 µM [1]: 100%
- viability at 24 h, 2.5 µM ([3]; HaCaT cells, 2.5 µM, positive control, HaCaT, 24 h, read-out: % Cell viability ± SD): 88.14 ± 0.11%

Molecule: CC(C)(O)c1cc2c(o1)C(=O)c1ccccc1C2=O [avicequinone C]
- IC50 [8]: 4.45 ± 0.42 µM

Molecule: O=C(C=Cc1ccc(O)c(O)c1)Nc1ccccc1 [Compound 2, 3-(3,4-dihydroxyphenyl)-N-phenyl-2-propenamide]
- inhibition at 20 µM [1]: 4.84 ± 2.12%
- Toxicity against HaCaT cells [5]: no toxicity
- Toxicity against DP cells [6]: no toxicity
- viability at 24 h, 20 µM [3, 10]: 102.9 ± 0.4%

B1: HaCaTs-produced SRD5A1 (Homo sapiens) (protein)
chain: MATATGVAEERLLAALAYLQCAVGCAVFARNRQTNSVYGRHALPSHRLRVPARAAWVVQELPSLALPLYQYASESAPRLRSAPNCILLAMFLVHYGHRCLIYPFLMRGGKPMPLLACTMAIMFCTCNGYLQSRYLSHCAVYADDWVTDPRFLIGFGLWLTGMLINIHSDHILRNLRKPGDTGYKIPRGGLFEYVTAANYFGEIMEWCGYALASWSVQGAAFAFFTFCFLSGRAKEHHEWYLRKFEEYPKFRKIIIPFLF
notes: HaCaTs-produced SRD5A1 smoothly converted testosterone to DHT; endogenous in cells; host or cells: HaCaT human keratinocytes
- Km [9]: 9.287 µM
